Laboratory results reported in a melting point compilation (Tetko et al.; mined from patent text by program, amines drawn as free bases though some values may be those of a salt).

`O=C(NCCc1cccs1)c1ccc(-c2ccccc2)cc1` and `COCc1ccccc1-c1ccc(C(=O)O)cc1` fall in the same range of melting point: 164 to 166 °C for the first, 164 to 166 °C for the second.

First: CC(C)(C)C(O)Cn1c(-c2ccccc2[N+](=O)[O-])nc2ccccc21 (configuration not stated)
Second: COC(=O)c1ccccc1-c1ccc(C)cc1
The melting point of the first is higher: 192 to 193 °C for the first, 119 to 121 °C for the second.

Compared with `COCc1nc2c(NCc3c(C)cccc3C)cc(C(=O)O)cc2n1C`, `Cc1cccc(C)c1NC(C)C(=O)O` (configuration not stated) is lower in melting point: 269 to 272 °C for the first, 178 to 180 °C for the second.

First: CCC(=O)Nc1c(Sc2cc(C)cc(C)c2)c(C)c[nH]c1=O
Second: Cc1cc(C#N)cc(CNc2c(NC(C)(C)C)c(=O)c2=O)c1
The melting point of the first is lower: 186 to 188 °C for the first, 253 to 255 °C for the second.

Compared with `CCC(=NO)C1=CCCN(Cc2ccccc2)C1`, `O=C1CCCN(C(=O)Cc2ccccc2)C(=O)CCc2cc(Cl)ccc21` is higher in melting point: 111 to 112 °C for the first, 178 to 180 °C for the second.

Compared with `CC(C)C(/C=C/C(=O)O)=C(c1ccc(F)cc1)c1ccc(F)cc1`, `N#CCC(=O)Nc1ccc(-c2nncn2-c2ccc(F)cc2)cc1` is lower in melting point: 225 to 230 °C for the first, 223 to 225 °C for the second.

Compared with `NC(=O)Cc1c(N)cc(Br)cc1OCc1ccccc1`, `O=C1CCOc2ccc(OCc3ccccc3)cc21` is lower in melting point: 185 °C for the first, 107 to 108 °C for the second.

First: Nc1cccc(-n2nnnc2S)c1
Second: Cc1oc2ccc(N)cc2c1C
The melting point of the first is higher: 205 °C for the first, 77 to 78 °C for the second.

First: CCC(O)(c1ccc(O)cc1O)c1ccccc1C(F)(F)F (configuration not stated)
Second: O=C(O)c1cc(SC(F)(F)F)c(-c2ccc(Cl)cc2)[nH]1
The melting point of the first is lower: 143 to 144 °C for the first, 176 to 178 °C for the second.

Compared with `COc1ccc2c(ccn3c(C(F)(F)F)nnc23)c1`, `C[C@@H]1CNCc2cc3ccc(C(F)(F)F)cc3n21` is lower in melting point: 214 to 215 °C for the first, 123 to 125 °C for the second.

First: O=C(c1ccccc1)c1cc([N+](=O)[O-])ccc1NC1CCCCC1
Second: O=S(=O)(c1ccccc1)N1CCC(C(O)(c2ccc(F)cc2)C2CCCCC2)CC1 (configuration not stated)
The melting point of the first is lower: 75 °C for the first, 106 to 109 °C for the second.

`CCCCNc1nc(-c2ccc(=O)n(C)n2)c(-c2ccccc2)nc1N` and `C[C@@H](Nc1ncnc2[nH]c(-c3ccc(CN)cc3)cc12)c1ccccc1` cannot be ordered by melting point: 253 to 255 °C for the first, 253 to 256 °C for the second.

Compared with `CC(C)(C)c1ccc(/C=N/OCCOc2ccc(C(=O)O)c(OC(=O)c3ccccc3)c2)cc1`, `O=C(O)c1ccc(OCCNC(=O)C2Cc3ccccc3N2S(=O)(=O)c2ccc(-c3cccc(C(F)(F)F)c3)cc2)cc1F` (configuration not stated) is lower in melting point: 129 to 131 °C for the first, 97 to 105 °C for the second.

First: c1cc(-c2csnn2)ccn1
Second: O=c1[nH]c2ncc(-c3ccnc(O)c3)nc2n1CC1CCCCC1
The melting point of the first is lower: 121 to 123 °C for the first, 311 to 313 °C for the second.

Compared with `FC(F)(F)c1ccccc1OCCCc1cn(C(c2ccccc2)(c2ccccc2)c2ccccc2)cn1`, `CS(=O)(=O)c1ccc(-c2c(-c3ccc(F)cc3)c(OCC(=O)c3ccccc3)nn2CC(=O)c2ccccc2)cc1` is lower in melting point: 204 to 208 °C for the first, 151 to 152 °C for the second.

Compared with `N#Cc1c(N2CCCC2)cc(-c2ccccc2)c2c1-c1ccccc1C2`, `OC1(C2=NCCCN2)c2ccccc2-c2ccccc21` is higher in melting point: 158 to 160 °C for the first, 242 to 245 °C for the second.

First: N#Cc1ccc(OCc2ccsc2)cc1OC(CCC(=O)O)c1c(F)cccc1Cl (racemic)
Second: C#CCOc1cc(-n2nc3ccc(Cl)cn3c2=O)c(F)cc1C#N
The melting point of the first is lower: 128 to 130 °C for the first, 209 to 211 °C for the second.

First: CS(=O)(=O)c1ccc(-c2cnn(-c3ccc(F)cc3)c(=O)c2N2CCCC2)cc1
Second: CC(C)(C)COc1c(-c2ccc(S(C)(=O)=O)cc2)cnn(CC(F)(F)F)c1=O
The melting point of the first is higher: 192 to 195 °C for the first, 145 to 146 °C for the second.

First: CCOC(=O)C1=Cc2cc(Br)ccc2NCC1
Second: CCc1ccc2c(c1)NC(=O)C2=O
The melting point of the first is lower: 120 to 121 °C for the first, 128 to 136 °C for the second.

First: COC(CC(=O)O)C(O)=Nc1cc(Cl)cc(Cl)c1 (configuration not stated)
Second: CON(C(=O)c1cn(C)nc1C(F)F)C(CF)Cc1c(Cl)cc(Cl)cc1Cl (configuration not stated)
The melting point of the first is higher: 125 to 126 °C for the first, 117 to 118 °C for the second.

First: CC(NC(=O)NCCCCC1CCSS1)C(=O)O (configuration not stated)
Second: C=CCC(=O)S/C=C\C(=O)NCCCCCCCC
The melting point of the first is higher: 131 to 134 °C for the first, 60 to 62 °C for the second.

Compared with `O=C(O)CS(=O)CCCCCNS(=O)(=O)c1ccc(Cl)cc1` (configuration not stated), `CCCC[C@H](NS(=O)(=O)c1ccc(Br)cc1)C(=S)Nc1ccc(CC(=O)O)cc1` is higher in melting point: 91 to 92 °C for the first, 194 to 195 °C for the second.

First: O=C1NC(Cc2ccc(OCc3ccccc3)cn2)C(=O)NC1Cc1cccnc1 (configuration not stated)
Second: CN(CCOc1ccc2c(c1)OC(C)(C)C=C2c1ccc2ccccc2c1)Cc1ccccc1
The melting point of the first is higher: 193 to 196 °C for the first, 112 to 115 °C for the second.

Compared with `CCOCc1nc2c(N)nc3cc(OCc4nc(-c5cccs5)no4)ccc3c2n1CC(C)(C)O`, `COc1ccc2cc(C(C)COC(=O)c3cc(O)c4c(c3)C(=O)c3cccc(O)c3C4=O)ccc2c1` (configuration not stated) is lower in melting point: 173 to 175 °C for the first, 147 to 151 °C for the second.

First: CC1(C)C[C@H]2c3cccc4c3N(CCNC4)[C@H]2C1
Second: c1ccc2c(c1)C[C@H]1CSC(=Nc3cccc4ncccc34)N1C2
The melting point of the first is lower: 155 to 157 °C for the first, 194 °C for the second.

First: CC(=O)c1ccc2c(c1)CCc1ccc(C#N)cc1S2
Second: Cc1cc(C#N)ccc1-c1ccc(O)cc1
The melting point of the first is higher: 138 to 141 °C for the first, 136 to 138 °C for the second.

Compared with `Cc1c(C2=CCC(Cc3ccccc3)(N(C)C)CC2)[nH]c2ccc(C#N)cc12` (configuration not stated), `N#Cc1c[nH]c(-c2ccc3ccccc3c2)c1` is higher in melting point: 120 to 123 °C for the first, 200 to 206 °C for the second.

Compared with `CCOC(=O)C[C@H](O)C[C@H](O)/C=C/c1c(-c2ccc(F)cc2)nc(N(C)S(C)(=O)=O)nc1C(C)C`, `CCOC(=O)C1=C(C)NC(C)=C(C(=O)OC(C)C)C1c1ccccc1C#N` (configuration not stated) is higher in melting point: 92 to 94 °C for the first, 152 °C for the second.

First: Cc1ccsc1C(=O)c1cc(CN(C)C)c(O)c(C(C)(C)C)c1
Second: CCNC(=O)c1cc2c(c(Cl)c1O)CCN(C(=O)OC(C)(C)C)C[C@@H]2c1ccc(O)cc1
The melting point of the first is higher: 149 to 150 °C for the first, 120 to 125 °C for the second.

First: Nc1cc(Cl)cc(C(F)(F)F)c1N
Second: NNC(=O)c1cc2c(Oc3ccc(Cl)cc3)cncc2s1
The melting point of the first is lower: 53 °C for the first, 197 to 199 °C for the second.

Compared with `Cc1nc2c([N+](=O)[O-])cc(Br)cc2n1C`, `Cc1ccc([N+](=O)[O-])c(OCCOc2cc(C(=O)OC(C)(C)C)ccc2[N+](=O)[O-])c1` is lower in melting point: 193 to 195 °C for the first, 113 to 114 °C for the second.

Compared with `Fc1ccc(-c2nc3ccccn3c2-c2ccnc(-c3ccc(CN4CCOCC4)cc3)c2)cc1Cl`, `Fc1ccc([C@H]2CC[C@H](N3CCN(Cc4ccccc4)CC3)CC2)c2ccccc12` is lower in melting point: 189 °C for the first, 130 to 132 °C for the second.

Compared with `CCOc1ccc(-c2c(Cl)c(CN3C(=O)CCC3=O)nc3sc4c(c23)CCNC4)cc1`, `COc1ccccc1-n1c(=O)[nH]c2c(C(N)=O)nc(-c3ccc4cc[nH]c4c3)nc21` is lower in melting point: 215 to 217 °C for the first, 203 to 204 °C for the second.

First: CC(=O)Sc1c(C)nn2c3ccccc3n(C(C)=O)c12
Second: CC(=O)N(O)Cc1ccccc1Nc1cccc(C)c1C
The melting point of the first is higher: 191 to 193 °C for the first, 93 to 98 °C for the second.

Compared with `N#CCCCC(=NO)c1ccc(Cl)c(Cl)c1`, `N#Cc1ccc(NCCO)c([N+](=O)[O-])c1` is higher in melting point: 122 to 123 °C for the first, 132 to 134 °C for the second.

First: Cn1cc(-c2cccc(F)c2)c(=O)c(-c2cccc(F)c2)c1
Second: O=c1cc(-c2ccccc2)oc2ccc(OCCCCCN3CCC(O)CC3)cc12
The melting point of the first is higher: 149 to 151 °C for the first, 128 to 129 °C for the second.

Compared with `CCCN(CCC)[C@H]1COc2c(F)ccc(C(=O)NC)c2C1`, `CCCN(CCC)c1c([N+](=O)[O-])cc(S(=O)(=O)N(C)C(=O)OC)cc1[N+](=O)[O-]` is higher in melting point: 72 to 73 °C for the first, 90 to 94 °C for the second.

First: Cc1ccc(C(=O)NC(NC(=NC#N)Nc2ccccc2)C(Cl)(Cl)Cl)cc1 (configuration not stated)
Second: COC(=O)COc1ccc(C(C)CNS(=O)(=O)c2ccccc2)cc1F (configuration not stated)
The melting point of the first is higher: 197 to 199 °C for the first, 112 to 113 °C for the second.

Compared with `COCCCCCCCCCCC(=O)O`, `COc1cc(NCCCCCCCl)c2nccc(C)c2c1` is higher in melting point: 31 to 32 °C for the first, 66 °C for the second.

First: CCN1CCC(CNC(=O)c2cc(Cl)c(N)[nH]c2=O)CC1
Second: O=C(Nc1cccc(-c2nnn[nH]2)c1)C(=O)N1CCC(Cc2ccc(F)cc2)CC1
The melting point of the first is higher: 136 to 140 °C for the first, 107 to 112 °C for the second.

First: CC(C)(C)OC(=O)N[C@H](Cc1c[nH]c2ccccc12)C(N)=O
Second: CN1C(=O)C(NC(=O)OC(C)(C)C)CC(=O)c2ccccc21 (configuration not stated)
The melting point of the first is lower: 142 to 143 °C for the first, 205 to 206 °C for the second.

Compared with `CCOC(=O)c1c(C(F)(F)F)nc(C(F)F)c(C(=O)OC)c1NCC(F)(F)F`, `Cc1ccc(N2C(=O)C(O)=C(C(=O)c3ccc(C(C)C)cc3)C2c2ccc(C(F)(F)F)cc2)nn1` (configuration not stated) is higher in melting point: 64 to 66 °C for the first, 252 °C for the second.

First: O=c1[nH]c2ccc([C@H]3CC[C@H](N(CCCc4ccc(F)cc4)Cc4ccoc4)CC3)cc2o1
Second: CC(C)Cc1ccc(CCOC(=O)c2cc(O)c3c(c2)C(=O)c2cccc(O)c2C3=O)cc1
The melting point of the first is higher: 225 to 227 °C for the first, 117 to 121 °C for the second.

First: CCn1cc(C(=O)O)c(=O)c2cc(F)c(N3CCNC(c4cc5cc(Cl)ccc5o4)C3)cc21 (configuration not stated)
Second: CC(=O)c1cc(N2CCOCC2)ccc1NC(=O)c1cccc2c1OCO2
The melting point of the first is higher: 262 to 263 °C for the first, 150 to 152 °C for the second.

First: CCCCCCCNC(=O)Nc1c(C(=O)NC2CCN(C(c3ccccc3)c3ccccc3)CC2)cccc1N(C)C
Second: CCCCCC(CC(=O)Nc1cc(CBr)ccc1C(C)(C)C)c1cccc2c1OCO2 (configuration not stated)
The melting point of the first is higher: 203 °C for the first, 119 to 120 °C for the second.

Compared with `CCCCOc1c(C=O)n(C)c(=O)c2cc(Cl)c(Cl)cc12`, `CC(=O)c1ccc2[nH]c3ccc(C(C)=O)cc3c2c1` is higher in melting point: 114 to 115 °C for the first, 241 °C for the second.

First: CCCCC(Cc1cccnc1)(C(=O)NO)S(=O)(=O)c1ccc(OC)cc1 (configuration not stated)
Second: CC(C)(C)c1ccc(S(=O)(=O)Nc2cc(Cl)ncn2)cc1
The melting point of the first is lower: 65 °C for the first, 225 to 226 °C for the second.

First: O=Cc1cc2n(n1)CCOC2
Second: CN(C)c1nc2[nH]c3c(c(=O)n2n1)SCCC3
The melting point of the first is lower: 91 °C for the first, 130 °C for the second.

First: Cc1cc(C(=O)O)cc(C)c1N=C1NCCN1
Second: CC(=O)c1cc2nc(S(=O)Cc3nccc4c3OCO4)[nH]c2cc1C (configuration not stated)
The melting point of the first is lower: 116 to 117 °C for the first, 178 to 180 °C for the second.

Compared with `C1CCCCCC(=NOC(=NC2CCCCC2)NC2CCCCC2)CCCCC1`, `COc1cc(CC(=O)NCCOCc2ccc(C)c(C)c2)ccc1OCCN` is lower in melting point: 108 to 111 °C for the first, 60 to 62 °C for the second.

Compared with `CC(=O)NCCn1cccc1C1=CC(=O)c2ncccc2C1=O`, `O=C(O)C1CNC(C(=O)O)c2[nH]c3ccc(F)cc3c21` (configuration not stated) is higher in melting point: 164 to 165 °C for the first, 233 to 234 °C for the second.
